Patent US10479780B2, “Aminopyrazole derivatives” (Chugai Seiyaku Kabushiki Kaisha, priority 2015, dated 2019)

Legend:
Format in all cases: biochemical
human Yes1 enzyme = biological target: T1, human Yes1 enzyme (Homo sapiens, UniProt P07947); assay: Yes1 enzyme inhibitory activity (time-resolved fluorometry, biotinylated peptide phosphorylation); details: biotinylated peptide phosphorylation, read-out: YES_IC50
T1 construct: made in house
Summary of the method: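 Inhibition was expressed against a compound-free control to give IC50, using TR-FRET read-out (Eu-cryptate anti-pTyr antibody, streptavidin-XL665).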

human Src enzyme = biological target: T2, human Src enzyme (Homo sapiens, UniProt P12931); assay: Src enzyme inhibitory activity (time-resolved fluorometry, biotinylated peptide phosphorylation); details: biotinylated peptide phosphorylation, read-out: SRC_IC50
T2 construct: purchased Carna Biosciences, Inc. 08-173
T2 sequence (P12931 whole entry): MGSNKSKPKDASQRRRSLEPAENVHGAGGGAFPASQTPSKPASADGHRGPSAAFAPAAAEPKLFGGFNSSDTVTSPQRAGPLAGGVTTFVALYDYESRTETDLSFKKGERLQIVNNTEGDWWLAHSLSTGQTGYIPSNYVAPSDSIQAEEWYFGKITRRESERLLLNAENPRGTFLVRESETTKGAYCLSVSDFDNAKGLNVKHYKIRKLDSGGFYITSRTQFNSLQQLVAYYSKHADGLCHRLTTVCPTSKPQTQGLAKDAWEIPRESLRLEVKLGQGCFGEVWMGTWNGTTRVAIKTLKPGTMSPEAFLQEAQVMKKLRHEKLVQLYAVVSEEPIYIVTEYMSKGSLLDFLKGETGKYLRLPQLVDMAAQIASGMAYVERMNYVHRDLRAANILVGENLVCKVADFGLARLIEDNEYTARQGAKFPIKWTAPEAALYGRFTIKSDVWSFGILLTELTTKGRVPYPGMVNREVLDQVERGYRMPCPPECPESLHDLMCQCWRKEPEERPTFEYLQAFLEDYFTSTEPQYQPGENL
Summary of the method: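 Compounds were tested for blocking tyrosine phosphorylation of a biotinylated peptide substrate by recombinant human Src. Phosphorylated product was quantified by time-resolved fluorometry using europium cryptate and XL665 conjugates, and IC50 was calculated against the compound-free control.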

human Lck enzyme = biological target: T3, human Lck enzyme (Homo sapiens, UniProt P06239); assay: Lck enzyme inhibitory activity (time-resolved fluorometry, biotinylated peptide phosphorylation); details: biotinylated peptide phosphorylation, read-out: LCK_IC50
T3 construct: purchased Carna Biosciences, Inc. 08-170
T3 sequence (P06239 whole entry): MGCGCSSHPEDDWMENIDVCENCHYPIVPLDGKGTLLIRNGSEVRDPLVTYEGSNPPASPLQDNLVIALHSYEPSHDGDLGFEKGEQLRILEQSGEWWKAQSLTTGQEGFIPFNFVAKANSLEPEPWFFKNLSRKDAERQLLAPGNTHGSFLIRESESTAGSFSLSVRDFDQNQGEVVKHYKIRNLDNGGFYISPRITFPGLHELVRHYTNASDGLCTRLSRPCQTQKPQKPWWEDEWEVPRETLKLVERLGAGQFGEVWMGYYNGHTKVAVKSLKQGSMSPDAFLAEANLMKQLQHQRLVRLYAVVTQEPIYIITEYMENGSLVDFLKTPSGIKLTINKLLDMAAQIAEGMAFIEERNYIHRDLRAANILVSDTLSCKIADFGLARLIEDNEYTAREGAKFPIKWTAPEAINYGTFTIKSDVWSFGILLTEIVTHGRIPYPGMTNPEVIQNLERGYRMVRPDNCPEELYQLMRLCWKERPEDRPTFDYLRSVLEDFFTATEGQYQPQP
Summary of the method: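 Readout pairs a europium cryptate-labelled anti-phosphotyrosine antibody with XL665-streptavidin, measured by time-resolved fluorescence. IC50 derived from percent inhibition against untreated controls.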

T1 sequence (P07947 whole entry): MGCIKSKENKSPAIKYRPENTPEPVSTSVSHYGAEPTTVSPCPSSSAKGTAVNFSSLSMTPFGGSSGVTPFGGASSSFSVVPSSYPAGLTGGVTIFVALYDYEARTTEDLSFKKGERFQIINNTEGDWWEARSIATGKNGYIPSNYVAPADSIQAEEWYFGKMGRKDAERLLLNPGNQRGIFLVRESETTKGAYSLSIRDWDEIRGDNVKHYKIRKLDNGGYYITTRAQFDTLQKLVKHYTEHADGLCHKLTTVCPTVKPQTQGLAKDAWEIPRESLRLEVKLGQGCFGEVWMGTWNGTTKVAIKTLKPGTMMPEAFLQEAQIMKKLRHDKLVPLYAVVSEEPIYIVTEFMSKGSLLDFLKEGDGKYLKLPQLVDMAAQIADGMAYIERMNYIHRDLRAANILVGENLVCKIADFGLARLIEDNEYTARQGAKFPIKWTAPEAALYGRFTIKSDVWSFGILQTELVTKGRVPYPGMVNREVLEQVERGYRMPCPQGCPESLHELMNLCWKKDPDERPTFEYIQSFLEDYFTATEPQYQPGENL

Row | IC50 (human Yes1 enzyme) [nM] | IC50 (human Src enzyme) [nM] | IC50 (human Lck enzyme) [nM] | SMILES
1 | 1.1 | 84 | 17 | Cc1cc(Oc2ccccc2F)ncc1-n1ncc(C(=O)c2cc3cc(F)c(N4CC(C)(C)NS4(=O)=O)cc3[nH]2)c1N [Example 5-1-421, [5-amino-1-[6-(2-fluorophenoxy)-4-methylpyridin-3-yl]pyrazol-4-yl]-[6-(4,4-dimethyl-1,1-dioxo-1,2,5-thiadiazolidin-2-yl)-5-fluoro-1H-indol-2-yl]methanone]
2 | 1.7 | 250 | 91 | Cc1cc(Oc2ccccc2F)ncc1-n1ncc(C(=O)c2cc3cc(OCC(F)F)c(NS(=O)(=O)c4cccc(C#N)c4)cc3[nH]2)c1N [Example 5-1-422, N-[2-[5-amino-1-[6-(2-fluoropheooxy)-4-methylpyridin-3-yl]pyrazole-4-carbonyl]-5-(2,2-difluoroethoxy)-1H-indol-6-yl]-3-cyanobenzenesulfonamide]
3 | 4 | 190 | 61 | Cc1cc(Oc2ccccc2F)ccc1-n1ncc(C(=O)c2cc3cc(OC(F)F)c(N4CC5(CCCC5)NS4(=O)=O)cc3[nH]2)c1N [Example 5-1-423, [5-amino-1-[4-(2-fluorophenoxy)-2-methylphenyl]pyrazol-4-yl]-[5-(difluoromethoxy)-6-(2,2-dioxo-2λ6-thia-1,3-diazaspiro[4.4]nonan-3-yl)-1H-indol-2-yl]methanone]
4 | 5.6 | 480 | 200 | Cc1cc(Oc2ccccc2F)ncc1-n1ncc(C(=O)c2cc3cc(OCC(F)F)c(NS(=O)(=O)c4cccc(Cl)c4)cc3[nH]2)c1N [Example 5-1-424, N-[2-[5-amino-1-[6-(2-fluorophenoxy)-4-methylpyridin-3-yl]pyrazole-4-carbonyl]-5-(2,2-difluoroethoxy)-1H-indol-6-yl]-3-chlorobenzenesulfonamide]
5 | 1.5 | 95 | 39 | Cc1cc(Oc2ccccc2F)ncc1-n1ncc(C(=O)c2cc3cc(OCC(F)F)c(NS(=O)(=O)c4cccnc4)cc3[nH]2)c1N [Example 5-1-425, N-[2-[5-amino-1-[6-(2-fluorophenoxy)-4-methylpyridin-3-yl]pyrazole-4-carbonyl]-5-(2,2-difluoroethoxy)-1H-indol-6-yl]pyridine-3-sulfonamide]
6 | 2 | 95 | 36 | Cc1cc(Oc2ccccc2F)ccc1-n1ncc(C(=O)c2cc3cc(C4CC4)c(NS(=O)(=O)CCCF)cc3[nH]2)c1N [Example 5-1-426, N-[2-[5-amino-1-[4-(2-fluorophenoxy)-2-methylphenyl]pyrazole-4-carbonyl]-5-cyclopropyl-1H-indol-6-yl]-3-fluoropropane-1-sulfonamide]
7 | 3.8 | 170 | 43 | Cc1cc(Oc2c(F)cccc2F)ncc1-n1ncc(C(=O)c2cc3cc(C4CC4)c(NS(=O)(=O)CCCF)cc3[nH]2)c1N [Example 5-1-427, N-[2-[5-amino-1-[6-(2,6-difluorophenoxy)-4-methylpyridin-3-yl]pyrazole-4-carbonyl]-5-cyclopropyl-1H-indol-6-yl]-3-fluoropropane-1-sulfonamide]
8 | 3.1 | 170 | 46 | Cc1cc(Oc2ccccc2F)ncc1-n1ncc(C(=O)c2cc3cc(C4CC4)c(NS(=O)(=O)CCCF)cc3[nH]2)c1N [Example 5-1-428, N-[2-[5-amino-1-[6-(2-fluorophenoxy)-4-methylpyridin-3-yl]pyrazole-4-carbonyl]-5-cyolopropyl-1H-indol-6-yl]-3-fluoropropane-1-sulfonamide]
9 | 7.5 | 190 | 25 | Cc1cc2cc(C(=O)c3cnn(-c4cnc(Oc5c(F)cccc5F)cc4C)c3N)[nH]c2cc1N1C(=O)NC(C)(C(F)(F)F)C1=O (stereo not drawn) [Example 5-1-429, 3-[2-[5-amino-1-[6-(2,6-difluorophenoxy)-4-methylpyridin-3-yl]pyrazole-4-carbonyl]-5-methyl-1H-indol-6-yl]-5-methyl-5-(trlfluoromethyl)imidazolidine-2,4-dione]
10 | 8.4 | 280 | 37 | Cc1cc(Oc2c(F)cccc2F)ncc1-n1ncc(C(=O)c2cc3cc(F)c(N4C(=O)N[C@@H](Cc5ccccc5)C4=O)cc3[nH]2)c1N [Example 5-1-430, (5S)-3-[2-[5-amino-1-[6-(2,6-difluorophenoxy)-4-methylpyridin-3-yl]pyrazole-4-carbonyl]-5-fluoro-1H-indol-6-yl]-5-benzylimidazolidine-2,4-dione]
11 | 4.9 | 190 | 20 | Cc1cc(Oc2c(F)cccc2F)ncc1-n1ncc(C(=O)c2cc3cc(F)c(N4C(=O)N[C@@H](C(C)C)C4=O)cc3[nH]2)c1N [Example 5-1-431, (5S)-3-[2-[5-amino-1-[6-(2,6-difluorophenoxy)-4-methylpyridin-3-yl]pyrazole-4-carbonyl]-5-fluoro-1H-indol-6-yl]-5-propan-2-ylimidazolidine-2,4-dione]
12 | 3.8 | 96 | 7.7 | Cc1cc(Oc2c(F)cccc2F)ncc1-n1ncc(C(=O)c2cc3cc(F)c(N4C(=O)[C@@H]5CCCN5C4=O)cc3[nH]2)c1N [Example 5-1-432, (7aS)-2-[2-[5-amino-1-[6-(2,6-difluorophenoxy)-4-methylpyridin-3-yl]pyrazole-4-carbonyl]-5-fluoro-1H-indol-6-yl]-5,6,7,7a-tetrahydropyrrolo[1,2-c]imidazole-1,3-dione]
13 | 1.2 | 59 | 4.8 | Cc1cc(Oc2c(F)cccc2F)ncc1-n1ncc(C(=O)c2cc3cc(F)c(N4C(=O)[C@@H]5C[C@@H](O)CN5C4=O)cc3[nH]2)c1N [Example 5-1-433, (6R,7aS)-2-[2-[5-amino-1-[6-(2,6-difluorophenoxy)-4-methylpyridin-3-yl]pyrazole-4-carbonyl]-5-fluoro-1H-indol-6-yl]-6-hydroxy-5,6,7,7a-tetrahydropyrrolo[1,2-c]imidazole-1,3-dione]
14 | 0.44 | 15 | 4.1 | Cc1cc2cc(C(=O)c3cnn(-c4ccc(Oc5ccccc5F)cc4C)c3N)[nH]c2cc1N1C(=O)CNC1=O [Example 5-1-434, 3-[2-[5-amino-1-[4-(2-fluorophenoxy)-2-methylphenyl]pyrazole-4-carbonyl]-5-methyl-1H-indol-6-yl]imidazolidine-2,4-dione]
15 | 2 | 120 | 21 | Cc1cc2cc(C(=O)c3cnn(-c4ccc(Oc5ccccc5F)cc4C)c3N)[nH]c2cc1N1C(=O)NC(C)(C(F)(F)F)C1=O (stereo not drawn) [Example 5-1-435, 3-[2-[5-amino-1-[4-(2-fluorophenoxy)-2-methylphenyl]pyrazole-4-carbonyl]-5-methyl-1H-indol-6-yl]-5-methyl-5-(trifluoromethyl) imidazolidine-2,4-dione]
16 | 1.7 | 230 | 35 | Cc1cc(Oc2ccccc2F)ccc1-n1ncc(C(=O)c2cc3cc(F)c(N4C(=O)N[C@@H](Cc5ccccc5)C4=O)cc3[nH]2)c1N [Example 5-1-436, (5S)-3-[2-[5-amino-1-[4-(2-fluorophenoxy)-2-methylphenyl]pyrazole-4-carbonyl]-5-fluoro-1H-indol-6-yl]-5-benzylimidazolidine-2,4-dione]
17 | 0.79 | 40 | 7.8 | Cc1cc(Oc2ccccc2F)ccc1-n1ncc(C(=O)c2cc3cc(F)c(N4C(=O)NC5(CCOCC5)C4=O)cc3[nH]2)c1N [Example 5-1-437, 3-[2-[5-amino-1-[4-(2-fluorophenoxy)-2-methylphenyl]pyrazole-4-carbonyl]-5-fluoro-1H-indol-6-yl]-8-oxa-1,3-diazaspiro[4.5]decane-2,4-dione]
18 | 1.9 | 120 | 15 | Cc1cc(Oc2ccccc2F)ccc1-n1ncc(C(=O)c2cc3cc(F)c(N4C(=O)NC5(CCCC5)C4=O)cc3[nH]2)c1N [Example 5-1-438, 3-[2-[5-amino-1-[4-(2-fluorophenoxy)-2-methylphenyl]pyrazolo-4-carbonyl]-5-fluoro-1H-indol-6-yl]-1,3-diazaspiro[4.4]nonane-2,4-dione]
19 | 7.3 | 690 | 310 | COc1cccc(S(=O)(=O)Nc2cc3[nH]c(C(=O)c4cnn(-c5cnc(Oc6ccccc6F)cc5C)c4N)cc3cc2C)c1 [Example 5-1-439, N-[2-[5-amino-1-[6-(2-fluorophenoxy)-4-methylpyridin-3-yl]pyrazole-4-carbonyl]-5-methyl-1H-indol-6-yl]-3-methoxybenzenesulfonamide]
20 | 3.7 | 440 | 130 | Cc1cc2cc(C(=O)c3cnn(-c4cnc(Oc5ccccc5F)cc4C)c3N)[nH]c2cc1NS(=O)(=O)c1cccc(C#N)c1 [Example 5-1-440, N-[2-[5-amino-1-[6-(2-fluorophenoxy)-4-methylpyridin-3-yl]pyrazole-4-carbonyl]-5-mothyl-1H-indol-6-yl]-3-cyanobenzenesulfonamide]
21 | 1.8 | 280 | 73 | Cc1cc2cc(C(=O)c3cnn(-c4cnc(Oc5ccccc5F)cc4C)c3N)[nH]c2cc1NS(=O)(=O)c1cccnc1 [Example 5-1-441, N-[2-[5-amino-1-[6-(2-fluorophenoxy)-4-methylpyridin-3-yl]pyrazole-4-carbonyl]-5-methyl-1H-indol-6-yl]pyridine-3-sulfonamide]
